# Reference: PubChem BioAssay AID1963848 (Molecular Pharmacology Branch, DTP, NCI, 2024)
# System: 379773-124-R-J2-PDC spheroid viability
# Test: Anticancer human tumor 379773-124-R-J2-PDC patient-derived endometrial carcinoma cell line growth inhibition [POLQ]
# Conditions: spheroids with HUVEC and MSC; for IC50: curve of first compound; for viability, T/C: stronger effect = lower value
# In short: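 Patient-derived tumour cells were co-cultured with HUVEC and mesenchymal stem cells as multicellular spheroids at 37 °C. They were treated with POLQ inhibitors (novobiocin, ART-558, RP6685) alone or combined with other agents. Top concentrations were at or near clinical Cmax (otherwise 10 microM; SN-38 at 1 microM), decreasing in half-log steps.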
# [1] = second compound 0.0316 µM, first compound 0.00316 µM
# [2] = second compound 0.0316 µM, first compound 0.01 µM
# [3] = second compound 0.0316 µM, first compound 0.0316 µM
# [4] = second compound 0.0316 µM, first compound 0.1 µM
# [5] = second compound 0.0316 µM, first compound 0.316 µM
# [6] = second compound 0.0316 µM, first compound 1 µM
# [7] = second compound 0.1 µM, first compound 0.00316 µM
# [8] = second compound 0.1 µM, first compound 0.01 µM
# [9] = second compound 0.1 µM, first compound 0.0316 µM
# [10] = second compound 0.1 µM, first compound 0.1 µM
# [11] = second compound 0.1 µM, first compound 0.316 µM
# [12] = second compound 0.1 µM, first compound 1 µM
# [13] = second compound 0.316 µM, first compound 0.00316 µM
# [14] = second compound 0.316 µM, first compound 0.01 µM
# [15] = second compound 0.316 µM, first compound 0.0316 µM
# [16] = second compound 0.316 µM, first compound 0.1 µM
# [17] = second compound 0.316 µM, first compound 0.316 µM
# [18] = second compound 0.316 µM, first compound 1 µM
# [19] = second compound 1 µM, first compound 0.00316 µM
# [20] = second compound 1 µM, first compound 0.01 µM
# [21] = second compound 1 µM, first compound 0.0316 µM
# [22] = second compound 1 µM, first compound 0.1 µM
# [23] = second compound 1 µM, first compound 0.316 µM
# [24] = second compound 1 µM, first compound 1 µM
# [25] = second compound 3.16 µM, first compound 0.00316 µM
# [26] = second compound 3.16 µM, first compound 0.01 µM
# [27] = second compound 3.16 µM, first compound 0.0316 µM
# [28] = second compound 3.16 µM, first compound 0.1 µM
# [29] = second compound 3.16 µM, first compound 0.316 µM
# [30] = second compound 3.16 µM, first compound 1 µM
# [31] = second compound 10 µM, first compound 0.00316 µM
# [32] = second compound 10 µM, first compound 0.01 µM
# [33] = second compound 10 µM, first compound 0.0316 µM
# [34] = second compound 10 µM, first compound 0.1 µM
# [35] = second compound 10 µM, first compound 0.316 µM
# [36] = second compound 10 µM, first compound 1 µM
# 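Note: spheroids exposed to drugs for seven days before readout.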
# 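Throughout, for viability, T/C: percent viability relative to DMSO vehicle control taken as 100%.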
compound,measurement,setting,value
CCc1c2c(nc3ccc(O)cc13)-c1cc3c(c(=O)n1C2)COC(=O)[C@]3(O)CC + Cc1cccc(N(C)C(=O)C2C(O)CCN2c2nc(C)cc(C(F)(F)F)c2C#N)c1,IC50,second compound 0.0316 µM,< 3.16 nM
same,IC50,second compound 0.1 µM,< 3.16 nM
same,IC50,second compound 0.316 µM,< 3.16 nM
same,IC50,second compound 1 µM,< 3.16 nM
same,IC50,second compound 3.16 µM,< 3.16 nM
same,IC50,second compound 10 µM,< 3.16 nM
same,"viability, T/C",[1],42.3%
same,"viability, T/C",[2],11.2%
same,"viability, T/C",[3],7.22%
same,"viability, T/C",[4],2.98%
same,"viability, T/C",[5],1.21%
same,"viability, T/C",[6],0.39%
same,"viability, T/C",[7],42.5%
same,"viability, T/C",[8],11.1%
same,"viability, T/C",[9],6.54%
same,"viability, T/C",[10],3.61%
same,"viability, T/C",[11],2%
same,"viability, T/C",[12],1.94%
same,"viability, T/C",[13],50%
same,"viability, T/C",[14],10.5%
same,"viability, T/C",[15],6.39%
same,"viability, T/C",[16],2.26%
same,"viability, T/C",[17],1.38%
same,"viability, T/C",[18],0.58%
same,"viability, T/C",[19],41.5%
same,"viability, T/C",[20],12.6%
same,"viability, T/C",[21],7.38%
same,"viability, T/C",[22],2.95%
same,"viability, T/C",[23],2.13%
same,"viability, T/C",[24],0.49%
same,"viability, T/C",[25],43.7%
same,"viability, T/C",[26],14.4%
same,"viability, T/C",[27],7.52%
same,"viability, T/C",[28],3.81%
same,"viability, T/C",[29],1.74%
same,"viability, T/C",[30],0.63%
same,"viability, T/C",[31],30.8%
same,"viability, T/C",[32],13.9%
same,"viability, T/C",[33],7.18%
same,"viability, T/C",[34],3.13%
same,"viability, T/C",[35],2.07%
same,"viability, T/C",[36],1.28%
COc1cccc(OCCCN)c1-c1cc(Nc2cnc(C#N)cn2)n[nH]1 + Cc1cccc(N(C)C(=O)C2C(O)CCN2c2nc(C)cc(C(F)(F)F)c2C#N)c1,IC50,second compound 0.0316 µM,6.72 nM
same,IC50,second compound 0.1 µM,6.43 nM
same,IC50,second compound 0.316 µM,6.04 nM
same,IC50,second compound 1 µM,6.31 nM
same,IC50,second compound 3.16 µM,6.03 nM
same,IC50,second compound 10 µM,6.19 nM
same,"viability, T/C",[1],87.1%
same,"viability, T/C",[2],30.5%
same,"viability, T/C",[3],2.41%
same,"viability, T/C",[4],2.05%
same,"viability, T/C",[5],1.74%
same,"viability, T/C",[6],1.59%
same,"viability, T/C",[7],92.8%
same,"viability, T/C",[8],23.4%
same,"viability, T/C",[9],3.34%
same,"viability, T/C",[10],3.31%
same,"viability, T/C",[11],2.36%
same,"viability, T/C",[12],1.82%
same,"viability, T/C",[13],85.5%
same,"viability, T/C",[14],22.3%
same,"viability, T/C",[15],3.19%
same,"viability, T/C",[16],1.9%
same,"viability, T/C",[17],1.95%
same,"viability, T/C",[18],2.25%
same,"viability, T/C",[19],93.4%
same,"viability, T/C",[20],21.1%
same,"viability, T/C",[21],3.23%
same,"viability, T/C",[22],2.53%
same,"viability, T/C",[23],2.26%
same,"viability, T/C",[24],3%
same,"viability, T/C",[25],84.3%
same,"viability, T/C",[26],23.2%
same,"viability, T/C",[27],3.07%
same,"viability, T/C",[28],2.7%
same,"viability, T/C",[29],2.36%
same,"viability, T/C",[30],0.99%
same,"viability, T/C",[31],88.8%
same,"viability, T/C",[32],22.1%
same,"viability, T/C",[33],4.5%
same,"viability, T/C",[34],4.11%
same,"viability, T/C",[35],2.59%
same,"viability, T/C",[36],2.26%
Nc1ccn(C2OC(CO)C(O)C2(F)F)c(=O)n1 (stereo unspecified) + Cc1cccc(N(C)C(=O)C2C(O)CCN2c2nc(C)cc(C(F)(F)F)c2C#N)c1,IC50,second compound 0.0316 µM,< 31.6 nM
same,IC50,second compound 0.1 µM,< 31.6 nM
same,IC50,second compound 0.316 µM,< 31.6 nM
same,IC50,second compound 1 µM,< 31.6 nM
same,IC50,second compound 3.16 µM,< 31.6 nM
same,IC50,second compound 10 µM,< 31.6 nM
same,"viability, T/C",[3],25.1%
same,"viability, T/C",[4],9.7%
same,"viability, T/C",[5],7.84%
same,"viability, T/C",[6],9.16%
same,"viability, T/C","second compound 0.0316 µM, first compound 3.16 µM",9.02%
same,"viability, T/C","second compound 0.0316 µM, first compound 10 µM",7.36%
same,"viability, T/C",[9],21%
same,"viability, T/C",[10],11.4%
same,"viability, T/C",[11],10.4%
same,"viability, T/C",[12],8.24%
same,"viability, T/C","second compound 0.1 µM, first compound 3.16 µM",9.14%
same,"viability, T/C","second compound 0.1 µM, first compound 10 µM",8.33%
same,"viability, T/C",[15],25.4%
same,"viability, T/C",[16],11.3%
same,"viability, T/C",[17],7.36%
same,"viability, T/C",[18],9.63%
same,"viability, T/C","second compound 0.316 µM, first compound 3.16 µM",9.1%
same,"viability, T/C","second compound 0.316 µM, first compound 10 µM",9.51%
same,"viability, T/C",[21],17.7%
same,"viability, T/C",[22],8.64%
same,"viability, T/C",[23],7.94%
same,"viability, T/C",[24],9.54%
same,"viability, T/C","second compound 1 µM, first compound 3.16 µM",10.9%
same,"viability, T/C","second compound 1 µM, first compound 10 µM",9.2%
same,"viability, T/C",[27],21.1%
same,"viability, T/C",[28],10.5%
same,"viability, T/C",[29],8.82%
same,"viability, T/C",[30],9.94%
same,"viability, T/C","second compound 3.16 µM, first compound 3.16 µM",10.1%
same,"viability, T/C","second compound 3.16 µM, first compound 10 µM",9.91%
same,"viability, T/C",[33],15.7%
same,"viability, T/C",[34],10.8%
same,"viability, T/C",[35],12.1%
same,"viability, T/C",[36],11.4%
same,"viability, T/C","second compound 10 µM, first compound 3.16 µM",13.6%
same,"viability, T/C","second compound 10 µM, first compound 10 µM",11.1%
